Results as given in ChEMBL document CHEMBL1159155, “An ether-based peptide analog as c-AMP-dependent protein kinase inhibitor/substrate” (Bioorg Med Chem Lett, 1994).
Non-standard residues stand in square brackets, D forms with d. Residues, ends and D or L forms follow the SMILES beside them. *: point of attachment. Bpa = N[C@@H](Cc1ccc(C(=O)c2ccccc2)cc1)C(=O)O; Npys = O=[N+]([O-])c1cccnc1S*; X1 = CC(C)CCOC[C@H](CO)N*

Legend:
[1] = Inhibition of bovine heart cAMP-dependent protein kinase (PKA); parameters: species or system Bos taurus
Bos taurus [2] = species on record: Bos taurus; assay: Activity against bovine heart cAMP-dependent protein kinase
Bos taurus [3] = species on record: Bos taurus; assay: Affinity for bovine heart cAMP-dependent protein kinase

Compound	Ki [1] [µM]	Vmax (Bos taurus [2]) [µM/min/mg]	Km (Bos taurus [3]) [µM]	Kd [1] [µM]	Vmax (Bos taurus [3]) [µM/min/mg]
CC(C)CCOC[C@H](CO)NC(=O)[C@H](C)NC(=O)[C@H](CCCN=C(N)N)NC(=O)[C@H](CCCN=C(N)N)NC(=O)[C@@H](N)CC(C)C (H-LRRA-X1)	120	0.107	108	–	–
CC(C)C[C@H](NC(=O)[C@H](CSSc1ncccc1[N+](=O)[O-])NC(=O)[C@H](C)NC(=O)[C@H](CCCN=C(N)N)NC(=O)[C@H](CCCN=C(N)N)NC(=O)[C@@H](N)CC(C)C)C(=O)NCC(=O)O (H-LRRAC(Npys)LG-OH)	–	–	–	40	–
CC(C)C[C@H](NC(=O)[C@H](Cc1ccc(C(=O)c2ccccc2)cc1)NC(=O)[C@H](C)NC(=O)[C@H](CCCN=C(N)N)NC(=O)[C@H](CCCN=C(N)N)NC(=O)[C@@H](N)CC(C)C)C(=O)NCC(=O)O (H-LRRA[Bpa]LG-OH)	–	–	–	110	–
CC(C)C[C@H](NC(=O)[C@H](CO)NC(=O)[C@H](C)NC(=O)[C@H](CCCNC(=N)N)NC(=O)[C@H](CCCNC(=N)N)NC(=O)[C@@H](N)CC(C)C)C(=O)NCC(=O)O [KEMPTIDE]	–	–	4.6	250	0.38
H-LRRAALG-OH	–	–	–	490	–
